Values quoted from earlier work as cited in patent publication US8765768B2, “Heterocyclic compounds and their uses” (Amgen Inc., priority 2010, dated 2014).

Legend:
[1] = target: T1, p110δ (Homo sapiens, UniProt O00329)
T1 sequence (O00329 1-1044): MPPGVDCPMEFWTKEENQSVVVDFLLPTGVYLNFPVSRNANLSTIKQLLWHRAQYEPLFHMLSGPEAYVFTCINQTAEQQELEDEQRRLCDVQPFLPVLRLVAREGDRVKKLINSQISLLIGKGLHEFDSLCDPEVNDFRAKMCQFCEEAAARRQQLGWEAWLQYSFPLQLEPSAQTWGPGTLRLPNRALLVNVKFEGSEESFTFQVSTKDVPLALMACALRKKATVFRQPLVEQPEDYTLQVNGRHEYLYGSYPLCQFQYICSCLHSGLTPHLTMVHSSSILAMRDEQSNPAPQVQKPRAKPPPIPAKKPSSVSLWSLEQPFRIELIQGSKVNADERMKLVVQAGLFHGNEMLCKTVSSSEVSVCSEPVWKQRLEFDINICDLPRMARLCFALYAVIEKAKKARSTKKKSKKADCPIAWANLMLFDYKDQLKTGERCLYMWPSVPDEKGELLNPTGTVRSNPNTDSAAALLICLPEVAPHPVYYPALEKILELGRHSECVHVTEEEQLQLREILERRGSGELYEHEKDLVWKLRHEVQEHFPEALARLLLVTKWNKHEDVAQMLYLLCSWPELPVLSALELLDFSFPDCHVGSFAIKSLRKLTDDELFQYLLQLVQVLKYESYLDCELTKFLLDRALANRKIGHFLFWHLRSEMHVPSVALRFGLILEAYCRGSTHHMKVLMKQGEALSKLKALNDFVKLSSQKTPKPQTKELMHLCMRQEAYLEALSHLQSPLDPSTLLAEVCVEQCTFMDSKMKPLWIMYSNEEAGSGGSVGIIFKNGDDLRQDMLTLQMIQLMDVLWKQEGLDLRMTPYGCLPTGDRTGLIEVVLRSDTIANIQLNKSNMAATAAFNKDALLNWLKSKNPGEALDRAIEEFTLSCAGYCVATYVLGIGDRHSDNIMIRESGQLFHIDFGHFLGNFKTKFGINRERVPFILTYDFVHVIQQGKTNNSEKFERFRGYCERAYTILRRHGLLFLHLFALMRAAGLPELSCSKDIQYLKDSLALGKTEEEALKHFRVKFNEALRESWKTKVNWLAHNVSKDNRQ

[2] = system: ovalbumin-induced airway inflammation
[3] = system: protein kinases
[4] = system: mouse model of rheumatoid arthritis; conditions: in vivo
[5] = system: model of systemic lupus erythematosis; conditions: in vivo

SMILES | inhibits p110δ [1] | inflammation and disease in a murine model of asthma [2] | activity against any protein kinases tested [3] | efficacy in a mouse model of rheumatoid arthritis [4] | onset of disease in a model of systemic lupus erythematosis [5]
Cc1ccccc1-n1c(Cn2cnc3c(N)ncnc32)nc2cccc(C)c2c1=O [IC87114] | high nanomolar range (triple digit) | significantly ameliorate inflammation and disease | no activity |  | 
O=C1NC(=O)/C(=C\c2ccc3nccnc3c2)S1 [AS 605240] |  |  |  | efficacious | delay onset of disease
